Calls of active or inactive are those of the source.
Tests used:
Paired box protein Pax-8 = Paired box protein Pax-8 (Homo sapiens, UniProt Q06710); test: inhibitors of PAX8-driven TPO luciferase reporter, dose response, RMG-I cells, cherry-pick (AID 687027); format: functional, cell-based;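 note: luciferase reporter driven by Pax8 target thyroperoxidase promoter measured by SteadyGlo luminescence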
[1] = cytotoxicity in OVCAR8 ovarian cancer cells, dose response, PAX8 project, cell-based, plate reader, dry powder samples (AID 743197); format: functional; settings: OVCAR-8
Vero = test: cells; format: functional, cell-based; settings: Chlorocebus sabaeus
[2] = HEp-2 cell cytotoxicity, dose response, cytotoxicity control for RSV inhibitor project, HTS (AID 2410); format: functional; settings: human respiratory syncytial virus
Genome polyprotein = Genome polyprotein (dengue virus type 2, UniProt P29990); test: Dengue-2 NS5 methyltransferase inhibitors, primary screen, biochemical, confirmation dose response (AID 588689); format: functional
[3] = target: T1, Rac GTPase-activating protein 1 (Homo sapiens, UniProt Q9H0H5); test: MgcRacGAP GTPase-activating activity inhibitors, confirmation, biochemical, ADP Hunter fluorescence, primary and confirmatory (AID 624330); format: functional
T1 sequence (Q9H0H5 whole entry): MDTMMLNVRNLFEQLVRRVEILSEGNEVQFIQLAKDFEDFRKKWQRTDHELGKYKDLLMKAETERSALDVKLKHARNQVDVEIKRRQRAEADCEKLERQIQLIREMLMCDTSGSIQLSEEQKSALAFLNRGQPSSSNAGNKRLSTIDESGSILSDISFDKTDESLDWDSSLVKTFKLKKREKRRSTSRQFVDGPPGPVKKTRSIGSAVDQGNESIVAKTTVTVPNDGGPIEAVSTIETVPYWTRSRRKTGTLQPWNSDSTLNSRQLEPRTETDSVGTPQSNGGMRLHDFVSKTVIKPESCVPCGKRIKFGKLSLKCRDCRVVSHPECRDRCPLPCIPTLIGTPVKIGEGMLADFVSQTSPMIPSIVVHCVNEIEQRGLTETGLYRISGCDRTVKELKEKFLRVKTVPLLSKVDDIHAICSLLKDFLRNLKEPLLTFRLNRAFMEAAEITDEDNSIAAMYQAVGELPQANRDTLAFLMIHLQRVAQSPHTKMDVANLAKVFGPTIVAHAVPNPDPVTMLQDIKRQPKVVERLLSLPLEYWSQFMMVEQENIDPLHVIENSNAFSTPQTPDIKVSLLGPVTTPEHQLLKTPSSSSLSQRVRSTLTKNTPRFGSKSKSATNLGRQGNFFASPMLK

[4] = target: Neurotensin receptor type 1 (Homo sapiens, UniProt P30989); format: functional;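 note: Image-based confirmatory dose-response assay measuring agonist activity at NTR1; NTR1-expressing U2OS osteosarcoma cells imaged for beta-arrestin GFP spot formation; agonist potency where compounds increase beta-arrestin recruitment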
[5] = Luminescence Cell-Based Dose Retest to Confirm Inhibitors of Cancer Stem Cells. [Related pubchem assays (depositor defined):AID2717, AID2721]; format: functional; settings: Homo sapiens
INS1 = test: beta cell apoptosis inhibitors, cytokine rescue, dose response, luminescence, retest (AID 449756); format: functional, cell-based; settings: Rattus norvegicus;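 note: cell death triggered by IL-1 beta plus TNF-alpha plus IFN-gamma mixture; protective hits raise ATP signal compared with cytokine alone wells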
[6] = target: Endoplasmic reticulum aminopeptidase 1 (Homo sapiens, UniProt Q9NZ08); test: ERAP1 aminopeptidase inhibitors, dose response, biochemical, cherry-pick, set 2, plate reader (AID 743314)
[7] = HepG2 cell cytotoxicity, dose response, cytotoxicity control, plate reader, dry powder samples (AID 1159569); format: functional, cell-based;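 note: inhibitor potency with signal falling toward the positive control level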
[8] = P. falciparum Dd2 growth inhibitors, dose response, SYBR Green, dry powder samples (AID 1159566); format: functional, cell-based;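 note: potency for growth inhibition with lower SYBR green DNA signal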
[9] = P. falciparum 3D7-ScDHODH growth inhibitors, dose response, SYBR Green, dry powder samples (AID 1159570); format: functional, cell-based;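 note: parasite growth measured after 72 hours of compound exposure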
[10] = P. falciparum Dd2 growth inhibitors, dose response, SYBR Green, cherry-picked samples (AID 1159567); format: functional, cell-based
[11] = P. falciparum ATP4 D1247Y mutant growth inhibitors, dose response, NITD609-resistant line, SYBR Green, dry powder (AID 1159571); format: functional, cell-based;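 note: parasites synchronized at ring stage by sorbitol before testing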
[12] = Shn3 3'UTR reporter inhibitors, dose response, cell-based, Clone20 osteoblasts, firefly luciferase, cherry-picked (AID 624132); format: functional;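 note: firefly luciferase luminescence from reporter carrying the Shn3 3'UTR in osteoblasts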
[13] = control 3'UTR Renilla luciferase suppression, dose response, counter-screen for Shn3 inhibitor project, cell-based, Clone20-Shn3RL, cherry-picked (AID 624133); format: functional
Protein skinhead-1 = target: T2, Protein skinhead-1 (Caenorhabditis elegans, UniProt P34707); format: functional
T2 sequence (P34707 whole entry): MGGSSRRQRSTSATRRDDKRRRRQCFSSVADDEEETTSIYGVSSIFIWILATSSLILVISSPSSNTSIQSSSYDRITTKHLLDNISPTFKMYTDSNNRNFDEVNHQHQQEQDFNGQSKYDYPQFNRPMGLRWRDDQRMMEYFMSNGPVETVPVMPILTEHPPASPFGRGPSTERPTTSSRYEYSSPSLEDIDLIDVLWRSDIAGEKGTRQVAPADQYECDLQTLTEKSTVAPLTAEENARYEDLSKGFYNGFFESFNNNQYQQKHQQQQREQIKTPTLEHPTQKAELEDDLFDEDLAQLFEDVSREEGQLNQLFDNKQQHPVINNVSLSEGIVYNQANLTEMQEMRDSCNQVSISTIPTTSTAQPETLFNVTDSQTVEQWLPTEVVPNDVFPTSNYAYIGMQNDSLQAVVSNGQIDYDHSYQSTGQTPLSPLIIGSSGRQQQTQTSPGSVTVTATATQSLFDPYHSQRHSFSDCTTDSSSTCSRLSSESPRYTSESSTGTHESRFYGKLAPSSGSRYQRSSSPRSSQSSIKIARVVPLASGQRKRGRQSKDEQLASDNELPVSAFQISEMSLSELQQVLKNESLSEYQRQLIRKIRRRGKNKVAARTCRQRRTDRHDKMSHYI

[14] = target: T3, COUP transcription factor 2 (Homo sapiens, UniProt P24468); test: Luminescence-based cell-based high throughput dose response assay to identify inhibitors of COUP-TFII (NR2F2).; format: functional;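 note: HEK293 cells transiently cotransfected with COUP-TFII expression vector and reporter; luciferase reporter luminescence driven by COUP-TFII from the pX2-168 reporter plasmid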
T3 sequence (P24468 whole entry): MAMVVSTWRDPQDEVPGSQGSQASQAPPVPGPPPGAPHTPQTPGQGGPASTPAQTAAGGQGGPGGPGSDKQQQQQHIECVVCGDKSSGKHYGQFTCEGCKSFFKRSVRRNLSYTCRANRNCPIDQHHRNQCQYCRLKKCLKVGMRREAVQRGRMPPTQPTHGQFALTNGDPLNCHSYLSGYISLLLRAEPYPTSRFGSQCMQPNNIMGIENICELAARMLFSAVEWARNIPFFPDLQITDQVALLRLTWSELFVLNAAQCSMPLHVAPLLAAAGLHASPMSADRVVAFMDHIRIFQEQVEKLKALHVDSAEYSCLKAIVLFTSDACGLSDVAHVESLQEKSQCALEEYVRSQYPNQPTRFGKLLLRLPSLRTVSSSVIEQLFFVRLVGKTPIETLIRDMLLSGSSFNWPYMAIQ

P388/ADR = test: cells; format: functional; settings: Mus musculus
SN12K1 = test: cells; format: functional; settings: Homo sapiens
P388 = test: cells; format: functional; settings: Mus musculus
[15] = target: T4, Dual specificity protein phosphatase 6 (Rattus norvegicus, UniProt Q64346); test: MKP-3 phosphatase inhibitors, primary screen, biochemical, rat enzyme, in vitro (AID 425)
T4 sequence (Q64346 whole entry): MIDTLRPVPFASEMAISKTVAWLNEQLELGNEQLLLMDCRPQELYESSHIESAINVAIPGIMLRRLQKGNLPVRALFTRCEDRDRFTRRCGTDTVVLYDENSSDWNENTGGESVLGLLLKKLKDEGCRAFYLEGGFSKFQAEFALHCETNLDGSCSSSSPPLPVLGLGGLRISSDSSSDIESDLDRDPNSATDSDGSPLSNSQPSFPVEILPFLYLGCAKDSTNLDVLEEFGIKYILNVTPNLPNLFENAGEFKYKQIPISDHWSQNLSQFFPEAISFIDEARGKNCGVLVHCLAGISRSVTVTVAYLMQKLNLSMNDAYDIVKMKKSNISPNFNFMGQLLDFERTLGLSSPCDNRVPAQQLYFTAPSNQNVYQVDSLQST

[16] = target: Luciferin 4-monooxygenase (Photinus pyralis, UniProt P08659); test: firefly luciferase enzyme inhibitors, dose response, biochemical, luminescence (AID 1891)
[17] = Luminescence-based cell-based high throughput dose response assay to identify activators of the DAF-12 from the parasite S. stercoralis (ssDAF-12).; format: functional
[18] = Luminescence Cell-Based Dose Confirmation HTS to Identify Inhibitors of Platelet Dense Granule Release. [Related pubchem assays: 1663 (Primary HTS), 1678 (Summary of Project)]; format: functional
[19] = target: T5, DNA repair protein RAD52 homolog (Homo sapiens, UniProt P43351); format: functional, biochemical
T5 sequence (P43351 whole entry): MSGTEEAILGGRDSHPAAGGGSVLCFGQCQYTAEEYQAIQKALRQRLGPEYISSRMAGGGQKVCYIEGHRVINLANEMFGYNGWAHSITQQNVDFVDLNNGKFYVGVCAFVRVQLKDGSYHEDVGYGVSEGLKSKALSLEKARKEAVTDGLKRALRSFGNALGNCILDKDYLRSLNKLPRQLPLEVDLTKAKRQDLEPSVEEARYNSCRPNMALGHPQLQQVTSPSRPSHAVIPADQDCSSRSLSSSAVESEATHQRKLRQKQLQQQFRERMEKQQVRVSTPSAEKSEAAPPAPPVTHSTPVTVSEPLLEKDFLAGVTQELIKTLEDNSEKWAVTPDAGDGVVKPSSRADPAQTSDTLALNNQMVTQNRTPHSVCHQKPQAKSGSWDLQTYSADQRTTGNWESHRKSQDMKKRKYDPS

[20] = C. albicans growth with fluconazole, confirmation, fluorescence, retest (AID 2467); format: functional, cell-based
[21] = microbe, parasite or virus in culture; format: functional; settings: Mycobacterium tuberculosis
[22] = NIH-3T3 fibroblast cytotoxicity, dose response, cytotoxicity control, cell-based, fluorescence, Alamar Blue, secondary assay (AID 2327); format: functional;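 note: NIH-3T3 mouse fibroblasts cultured with fluconazole at 8 µg/mL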
HeLa = test: HeLa cell cytotoxicity, dose response, cytotoxicity control, 24 h, cherry-picked samples (AID 504726); format: functional, cell-based; settings: Homo sapiens;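 note: potency for cytotoxicity as loss of luminescence signal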
[23] = cytotoxicity in HEK-293T cells, dose response, cytotoxicity control for BCR NF-kB inhibitor project, luminescence, B-cell screen hits (AID 489021); format: functional, cell-based;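 note: HEK-293T cells carrying an NF-kB luciferase reporter; cells exposed to compound for about 14 hours before viability readout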

Sequence of Endoplasmic reticulum aminopeptidase 1 (Q9NZ08 whole entry): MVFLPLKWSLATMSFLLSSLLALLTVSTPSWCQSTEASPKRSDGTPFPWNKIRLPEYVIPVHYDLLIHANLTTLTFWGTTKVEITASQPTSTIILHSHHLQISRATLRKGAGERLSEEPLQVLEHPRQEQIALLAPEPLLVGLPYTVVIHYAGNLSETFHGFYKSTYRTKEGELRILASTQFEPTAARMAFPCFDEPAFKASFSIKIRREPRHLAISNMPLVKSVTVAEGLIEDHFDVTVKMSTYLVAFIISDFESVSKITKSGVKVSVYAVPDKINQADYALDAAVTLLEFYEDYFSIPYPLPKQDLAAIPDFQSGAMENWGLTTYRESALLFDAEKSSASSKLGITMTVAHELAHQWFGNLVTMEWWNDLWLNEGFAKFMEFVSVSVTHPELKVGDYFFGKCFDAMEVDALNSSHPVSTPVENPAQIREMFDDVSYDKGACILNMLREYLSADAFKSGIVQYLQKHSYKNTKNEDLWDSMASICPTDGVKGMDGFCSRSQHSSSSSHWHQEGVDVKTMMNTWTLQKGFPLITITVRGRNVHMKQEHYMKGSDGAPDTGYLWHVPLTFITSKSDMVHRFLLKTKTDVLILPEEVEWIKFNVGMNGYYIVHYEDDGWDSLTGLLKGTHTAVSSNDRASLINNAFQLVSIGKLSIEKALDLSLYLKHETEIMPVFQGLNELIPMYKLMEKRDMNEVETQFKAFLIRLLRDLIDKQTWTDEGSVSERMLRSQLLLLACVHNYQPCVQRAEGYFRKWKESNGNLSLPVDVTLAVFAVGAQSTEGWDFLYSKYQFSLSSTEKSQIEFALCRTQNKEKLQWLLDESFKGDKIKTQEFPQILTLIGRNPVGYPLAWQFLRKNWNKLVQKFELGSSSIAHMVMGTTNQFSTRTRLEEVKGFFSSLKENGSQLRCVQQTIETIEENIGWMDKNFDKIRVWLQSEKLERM
Sequence of Neurotensin receptor type 1 (P30989 whole entry): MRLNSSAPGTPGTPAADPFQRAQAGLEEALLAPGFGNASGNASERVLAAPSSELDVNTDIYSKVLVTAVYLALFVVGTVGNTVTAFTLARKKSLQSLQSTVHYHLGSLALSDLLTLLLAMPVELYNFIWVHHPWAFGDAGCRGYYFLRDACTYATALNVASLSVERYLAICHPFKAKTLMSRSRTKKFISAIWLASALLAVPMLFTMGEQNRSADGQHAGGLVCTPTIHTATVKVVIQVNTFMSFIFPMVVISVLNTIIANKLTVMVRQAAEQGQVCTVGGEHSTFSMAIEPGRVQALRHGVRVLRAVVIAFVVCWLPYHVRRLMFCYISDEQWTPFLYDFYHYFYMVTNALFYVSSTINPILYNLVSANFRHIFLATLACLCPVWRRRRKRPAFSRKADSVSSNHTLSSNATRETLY
Sequence of Paired box protein Pax-8 (Q06710 whole entry): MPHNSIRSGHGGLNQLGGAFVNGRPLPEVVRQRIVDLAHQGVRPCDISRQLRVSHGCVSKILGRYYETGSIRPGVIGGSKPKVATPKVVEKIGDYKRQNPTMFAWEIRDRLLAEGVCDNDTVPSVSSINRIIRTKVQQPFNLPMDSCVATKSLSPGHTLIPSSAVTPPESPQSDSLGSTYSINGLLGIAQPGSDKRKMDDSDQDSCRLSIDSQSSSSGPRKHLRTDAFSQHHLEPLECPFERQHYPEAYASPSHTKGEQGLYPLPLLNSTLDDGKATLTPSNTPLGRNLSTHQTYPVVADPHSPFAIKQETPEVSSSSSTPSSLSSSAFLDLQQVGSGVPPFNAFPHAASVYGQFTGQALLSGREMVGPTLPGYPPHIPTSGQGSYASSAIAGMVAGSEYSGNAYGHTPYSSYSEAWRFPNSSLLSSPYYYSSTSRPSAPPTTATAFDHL
Sequence of Luciferin 4-monooxygenase (P08659 whole entry): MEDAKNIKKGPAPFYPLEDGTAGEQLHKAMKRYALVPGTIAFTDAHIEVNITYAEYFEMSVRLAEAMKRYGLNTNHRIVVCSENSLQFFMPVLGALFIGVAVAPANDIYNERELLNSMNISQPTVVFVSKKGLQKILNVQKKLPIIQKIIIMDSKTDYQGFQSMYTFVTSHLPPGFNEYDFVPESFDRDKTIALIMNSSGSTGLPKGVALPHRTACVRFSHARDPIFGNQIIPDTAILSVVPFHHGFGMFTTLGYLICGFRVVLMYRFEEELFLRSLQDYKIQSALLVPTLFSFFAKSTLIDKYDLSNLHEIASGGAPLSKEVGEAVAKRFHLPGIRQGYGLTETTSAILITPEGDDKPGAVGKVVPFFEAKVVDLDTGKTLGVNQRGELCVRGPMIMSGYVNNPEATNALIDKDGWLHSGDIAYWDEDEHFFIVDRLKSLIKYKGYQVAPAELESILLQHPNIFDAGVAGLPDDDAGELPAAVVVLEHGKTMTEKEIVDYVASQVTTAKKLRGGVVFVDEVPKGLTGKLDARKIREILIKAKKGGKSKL
Sequence of Genome polyprotein (P29990 2492-3391 limits assumed): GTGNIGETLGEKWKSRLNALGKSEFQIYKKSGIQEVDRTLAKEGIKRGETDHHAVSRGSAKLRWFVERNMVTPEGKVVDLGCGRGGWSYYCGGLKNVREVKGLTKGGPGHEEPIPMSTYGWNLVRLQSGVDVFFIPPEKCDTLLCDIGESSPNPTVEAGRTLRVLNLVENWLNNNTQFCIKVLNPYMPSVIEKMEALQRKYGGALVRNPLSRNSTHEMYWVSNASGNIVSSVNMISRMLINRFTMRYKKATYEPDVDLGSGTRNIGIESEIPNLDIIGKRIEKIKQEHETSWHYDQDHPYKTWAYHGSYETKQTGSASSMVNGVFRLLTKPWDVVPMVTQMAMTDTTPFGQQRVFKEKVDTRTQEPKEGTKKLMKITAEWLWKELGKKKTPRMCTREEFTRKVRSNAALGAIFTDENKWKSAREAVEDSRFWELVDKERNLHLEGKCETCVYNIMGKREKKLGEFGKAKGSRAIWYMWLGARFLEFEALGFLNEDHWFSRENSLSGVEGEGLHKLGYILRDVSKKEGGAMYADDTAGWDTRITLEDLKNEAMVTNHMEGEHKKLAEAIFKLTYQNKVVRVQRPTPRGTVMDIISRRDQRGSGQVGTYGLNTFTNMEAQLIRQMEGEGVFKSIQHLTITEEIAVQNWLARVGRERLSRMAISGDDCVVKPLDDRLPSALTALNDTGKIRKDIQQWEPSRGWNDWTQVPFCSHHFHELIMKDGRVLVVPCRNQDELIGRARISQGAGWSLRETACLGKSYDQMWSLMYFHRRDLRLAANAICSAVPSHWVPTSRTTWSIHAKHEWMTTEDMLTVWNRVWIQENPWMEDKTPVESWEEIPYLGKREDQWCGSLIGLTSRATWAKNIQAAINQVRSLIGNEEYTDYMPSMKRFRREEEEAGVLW

Cc1cc(C(=O)Nc2cccc3c2O[C@H](CN(C)Cc2ccc(Oc4ccccc4)cc2)[C@@H](C)CN([C@H](C)CO)C3=O)n(C)n1
AC50 (Paired box protein Pax-8): 13.2 µM (active) | AC50 [1]: > 70 µM (inactive)

O=C(CCNC(=O)c1ccc(Br)cc1)NC1CCCc2ccccc21 (configuration not stated)
IC50 (Vero): 9.27 µM (active) | IC50 (cells): 6.76 µM (active) | CC50 [2]: 43.7 µM (active)

CC1(C)CC(=O)C(C(C2=C(O)CC(C)(C)CC2=O)c2ccc(Br)s2)C(=O)C1 (configuration not stated)
IC50 (Genome polyprotein): 21.5 µM (active) | IC50 [3]: 61.5 µM (active) | EC50 [4]: 19.6 µM (active)

CCCCNc1c(-c2ccc(OC)c(SC(C)CC)c2)nc2ccc(C)cn12 (configuration not stated)
AC50 [5]: 6.87 µM (active) | AC50 (INS1): 4.34 µM (active) | EC50 [4]: 15.4 µM (active)

Cc1ccc(NC(=O)CN(C)C(=O)CSc2nc3ccccc3c(=O)n2Cc2ccco2)cc1
IC50 (cells): 44.3 µM (active) | CC50 [2]: 36.7 µM (active)

CC(=O)N1[C@@H]2c3ccc(/C=C/c4ccccc4)c(=O)n3C[C@H]1[C@H](CO)[C@H]2C(=O)N1CCOCC1
AC50 [6]: 3.12 µM (active)

N#Cc1c(N2CCNCC2)nc(-c2ccco2)c2c1CCCC2
AC50 [6]: 6.11 µM (active)

COc1cccc(CN2CCCCN3[C@H](CO)[C@@H](c4ccc(C#Cc5cccnc5)cc4)[C@@H]3C2)c1
AC50 [7]: 22.7 µM (active) | AC50 [8]: 0.427 µM (active) | AC50 [9]: 2.2 µM (active) | AC50 [10]: 1.34 µM (active) | AC50 [11]: 1.21 µM (active)

C[C@H](CO)N1C[C@H](C)[C@H](CN(C)C(=O)Nc2cc(F)ccc2F)Oc2cc(/C=C/c3ccccc3)ccc2S1(=O)=O
AC50 [7]: 86.7 µM (active) | AC50 [8]: 0.962 µM (active) | AC50 [9]: 2.62 µM (active) | AC50 [10]: 1.77 µM (active) | AC50 [11]: 2.06 µM (active)

COC(=O)C12OCC34C(CC5C(C)=C(O)C(=O)CC5(C)C3C(O)C1O)OC(=O)C(OC(=O)C=C(C)C)C24 (configuration not stated)
AC50 [12]: < 0.26 µM (active) | AC50 (Paired box protein Pax-8): < 0.26 µM (active) | AC50 [13]: 0.687 µM (active) | IC50 (Protein skinhead-1): 35.7 µM (active) | IC50 [14]: 0.0223 µM (active) | GI50 (P388/ADR): > 500 µM (inactive) | GI50 (SN12K1): 277 µM (inactive) | GI50 (P388): > 500 µM (inactive)

COc1ccc(Cc2nn3c(-c4cc(OC)c(OC)c(OC)c4)nnc3s2)cc1
IC50 [15]: > 100 µM (not active)

O=C(/C=C/Nc1ccccc1F)c1cccs1
IC50 (Protein skinhead-1): 14.7 µM (active) | EC50 [16]: 0.641 µM (active) | IC50 [17]: > 67.6 µM (inactive) | EC50 [18]: 4.56 µM (active)

Oc1ccc(-[n+]2c(-c3ccccc3)cc(-c3ccccc3)cc2-c2ccccc2)cc1.[O-][Cl+3]([O-])([O-])[O-]
AC50 [19]: 9.88 µM (active) | EC50 [20]: 0.879 µM (active) | CC50 [21]: 9.19 µM (active) | AC50 (INS1): 3.38 µM (active) | EC50 [22]: > 160 µM (inactive) | IC50 [14]: 9.1 µM (active)

N#C[C@H]1[C@@H](c2ccc(C#Cc3ccccc3F)cc2)[C@@H](CO)N1C(=O)C1CCC1
AC50 [7]: 44.9 µM (active) | AC50 [8]: 0.613 µM (active) | AC50 [9]: 0.779 µM (active) | AC50 [10]: 1.57 µM (active) | AC50 [11]: 1.04 µM (active)

Cc1ccc(/C=C/S(=O)(=O)N2CCC(C(=O)O)CC2)cc1
AC50 (HeLa): > 350 µM (inactive)

CC(C)(O)/C=C/C(=O)[C@](C)(O)C1[C@H](O)C[C@@]2(C)C3CC=C4C(C[C@H](O)[C@@H](O)C4(C)C)[C@]3(C)C(=O)C[C@]12C (some centres not stated)
IC50 [23]: > 80 µM (inactive)

CN(C)Cc1c(O)ccc2cc(-c3nc4ccccc4n3C)c(=O)oc12
AC50 [6]: 1.56 µM (active)
